According to ChEMBL document CHEMBL5360618, “PepScaf: Harnessing Machine Learning with In Vitro Selection toward De Novo Macrocyclic Peptides against IL-17C/IL-17RE Interaction” (J Med Chem, 2023):
Positions of bridges follow the written chain, without caps; N, C: chain ends. Residues, ends and D or L forms follow the SMILES beside them.

These molecules were tested against T1, IL17-RE-IL-17C (Homo sapiens, UniProt Q8NFR9+Q9P0M4) (assay: Inhibition of IL-17C/IL-17RE interaction (unknown origin) incubated for 1.5 hrs by ELISA method).
T1 sequence (Q9P0M4 whole entry): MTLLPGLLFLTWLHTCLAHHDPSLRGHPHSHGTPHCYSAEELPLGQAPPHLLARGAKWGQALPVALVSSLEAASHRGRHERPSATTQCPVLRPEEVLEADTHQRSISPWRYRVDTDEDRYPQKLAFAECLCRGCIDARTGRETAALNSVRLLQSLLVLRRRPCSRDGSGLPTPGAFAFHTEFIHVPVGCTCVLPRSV
T1 sequence (Q8NFR9 whole entry): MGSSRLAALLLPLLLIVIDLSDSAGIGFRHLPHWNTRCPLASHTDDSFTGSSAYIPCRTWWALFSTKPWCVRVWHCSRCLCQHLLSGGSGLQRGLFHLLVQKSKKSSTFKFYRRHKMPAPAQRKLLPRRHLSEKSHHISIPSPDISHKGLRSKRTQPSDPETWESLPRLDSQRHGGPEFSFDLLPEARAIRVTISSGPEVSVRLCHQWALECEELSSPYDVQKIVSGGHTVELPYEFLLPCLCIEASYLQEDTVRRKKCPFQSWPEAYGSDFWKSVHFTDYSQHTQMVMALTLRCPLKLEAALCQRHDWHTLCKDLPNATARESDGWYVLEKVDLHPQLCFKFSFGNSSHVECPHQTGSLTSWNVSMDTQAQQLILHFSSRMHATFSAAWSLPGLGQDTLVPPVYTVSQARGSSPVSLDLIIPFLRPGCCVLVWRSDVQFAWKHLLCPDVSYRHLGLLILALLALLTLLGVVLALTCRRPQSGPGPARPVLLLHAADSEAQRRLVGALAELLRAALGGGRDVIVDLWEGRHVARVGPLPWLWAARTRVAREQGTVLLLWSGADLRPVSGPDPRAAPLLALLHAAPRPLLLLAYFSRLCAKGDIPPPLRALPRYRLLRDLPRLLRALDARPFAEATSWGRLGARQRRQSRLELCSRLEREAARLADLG
Assay type: protein-complex assay
For CC[C@H](C)[C@@H]1NC(=O)[C@H](CCCNC(=N)N)NC(=O)[C@H](Cc2ccc(O)cc2)NC(=O)[C@H](Cc2ccc(O)cc2)NC(=O)[C@H](Cc2c[nH]cn2)NC(=O)[C@H](Cc2c[nH]cn2)NC(=O)[C@H](Cc2ccc(O)cc2)NC(=O)CSC[C@@H](C(=O)NCC(N)=O)NC(=O)CNC(=O)[C@H](CC(C)C)NC(=O)[C@H](C)NC(=O)CNC(=O)[C@H](Cc2ccc(O)cc2)NC(=O)[C@H](CC(C)C)NC1=O ({CH2CO}-YHHYYRILYGALGCG-NH2; thioether N-14), the IC50 was 0.18 µM. For CC[C@H](C)[C@@H]1NC(=O)[C@H](CCCNC(=N)N)NC(=O)[C@H](Cc2ccc(O)cc2)NC(=O)[C@H](Cc2ccc(O)cc2)NC(=O)[C@H](Cc2c[nH]cn2)NC(=O)[C@H](Cc2c[nH]cn2)NC(=O)[C@H](Cc2ccc(O)cc2)NC(=O)CSC[C@@H](C(=O)NCC(N)=O)NC(=O)CNC(=O)[C@H](C)NC(=O)[C@H](CCC(=O)O)NC(=O)CNC(=O)[C@H](Cc2ccc(O)cc2)NC(=O)[C@H](CC(C)C)NC1=O ({CH2CO}-YHHYYRILYGEAGCG-NH2; thioether N-14), the IC50 was > 30 µM. With CC[C@H](C)[C@@H]1NC(=O)[C@H](CCC(=O)O)NC(=O)CNC(=O)[C@H](Cc2ccc(O)cc2)NC(=O)[C@H](CC(C)C)NC(=O)[C@H]([C@@H](C)CC)NC(=O)[C@H](CCCNC(=N)N)NC(=O)[C@H](Cc2ccc(O)cc2)NC(=O)[C@H](Cc2ccc(O)cc2)NC(=O)[C@H](Cc2c[nH]cn2)NC(=O)[C@H](Cc2c[nH]cn2)NC(=O)[C@H](Cc2ccc(O)cc2)NC(=O)CSC[C@@H](C(=O)NCC(N)=O)NC(=O)CNC1=O ({CH2CO}-YHHYYRILYGEIGCG-NH2; thioether N-14) the IC50 was 0.422 µM. Work on CC[C@H](C)[C@@H]1NC(=O)[C@H](CCCNC(=N)N)NC(=O)[C@H](Cc2ccc(O)cc2)NC(=O)[C@H](Cc2ccc(O)cc2)NC(=O)[C@H](Cc2c[nH]cn2)NC(=O)[C@H](Cc2c[nH]cn2)NC(=O)[C@H](Cc2ccc(O)cc2)NC(=O)CSC[C@@H](C(=O)NCC(N)=O)NC(=O)[C@H](C)NC(=O)[C@H](CC(C)C)NC(=O)[C@H](CCC(=O)O)NC(=O)CNC(=O)[C@H](Cc2ccc(O)cc2)NC(=O)[C@H](CC(C)C)NC1=O ({CH2CO}-YHHYYRILYGELACG-NH2; thioether N-14) yielded an IC50 of 0.865 µM. With CC[C@H](C)[C@@H]1NC(=O)[C@H](CCCNC(=N)N)NC(=O)[C@H](Cc2ccc(O)cc2)NC(=O)[C@H](Cc2ccc(O)cc2)NC(=O)[C@H](Cc2c[nH]cn2)NC(=O)[C@H](Cc2c[nH]cn2)NC(=O)[C@H](Cc2ccc(O)cc2)NC(=O)CSC[C@@H](C(=O)NCC(N)=O)NC(=O)CNC(=O)[C@H](CC(C)C)NC(=O)[C@H](CCC(=O)O)NC(=O)CNC(=O)[C@H](Cc2ccc(O)cc2)NC(=O)[C@H](CC(C)C)NC1=O ({CH2CO}-YHHYYRILYGELGCG-NH2; thioether N-14) the IC50 was 0.166 µM. CC[C@H](C)[C@@H]1NC(=O)[C@H](CCCNC(=N)N)NC(=O)[C@H](Cc2ccc(O)cc2)NC(=O)[C@H](Cc2ccc(O)cc2)NC(=O)[C@H](Cc2cnc[nH]2)NC(=O)[C@H](Cc2cnc[nH]2)NC(=O)[C@H](Cc2ccc(O)cc2)NC(=O)CSC[C@@H](C(=O)NCC(N)=O)NC(=O)CNC(=O)[C@@H]2CCCN2C(=O)[C@H](CCC(=O)O)NC(=O)CNC(=O)[C@H](Cc2ccc(O)cc2)NC(=O)[C@H](CC(C)C)NC1=O ({CH2CO}-YHHYYRILYGEPGCG-NH2; thioether N-14) was tested, and the IC50 was > 30 µM. With CC[C@H](C)[C@@H]1NC(=O)[C@H](CCCNC(=N)N)NC(=O)[C@H](Cc2ccc(O)cc2)NC(=O)[C@H](Cc2ccc(O)cc2)NC(=O)[C@H](Cc2c[nH]cn2)NC(=O)[C@H](Cc2c[nH]cn2)NC(=O)[C@H](Cc2ccc(O)cc2)NC(=O)CSC[C@@H](C(=O)NCC(N)=O)NC(=O)CNC(=O)[C@H](CC(C)C)NC(=O)CNC(=O)CNC(=O)[C@H](Cc2ccc(O)cc2)NC(=O)[C@H](CC(C)C)NC1=O ({CH2CO}-YHHYYRILYGGLGCG-NH2; thioether N-14) the IC50 was 0.211 µM. Work on CC[C@H](C)[C@@H]1NC(=O)[C@H](CCCNC(=N)N)NC(=O)[C@H](Cc2ccc(O)cc2)NC(=O)[C@H](Cc2ccc(O)cc2)NC(=O)[C@H](Cc2c[nH]cn2)NC(=O)[C@H](Cc2c[nH]cn2)NC(=O)[C@H](Cc2ccc(O)cc2)NC(=O)CSC[C@@H](C(=O)NCC(N)=O)NC(=O)CNC(=O)[C@H](CC(C)C)NC(=O)[C@H](C(C)C)NC(=O)CNC(=O)[C@H](Cc2ccc(O)cc2)NC(=O)[C@H](CC(C)C)NC1=O ({CH2CO}-YHHYYRILYGVLGCG-NH2; thioether N-14) yielded an IC50 of 0.442 µM. For CC[C@H](C)[C@@H]1NC(=O)[C@H](CCCNC(=N)N)NC(=O)[C@H](Cc2ccc(O)cc2)NC(=O)[C@H](Cc2ccc(O)cc2)NC(=O)[C@H](Cc2c[nH]cn2)NC(=O)[C@H](Cc2c[nH]cn2)NC(=O)[C@H](Cc2ccc(O)cc2)NC(=O)CSC[C@@H](C(=O)NCC(N)=O)NC(=O)CNC(=O)[C@H](CC(C)C)NC(=O)[C@H](CCC(=O)O)NC(=O)[C@H](CO)NC(=O)[C@H](Cc2ccc(O)cc2)NC(=O)[C@H](CC(C)C)NC1=O ({CH2CO}-YHHYYRILYSELGCG-NH2; thioether N-14), the IC50 was 1.34 µM. CC[C@H](C)[C@@H]1NC(=O)[C@H](CCCNC(=N)N)NC(=O)[C@H](Cc2ccc(O)cc2)NC(=O)[C@H](Cc2ccc(O)cc2)NC(=O)[C@H](Cc2c[nH]cn2)NC(=O)[C@H](Cc2c[nH]cn2)NC(=O)[C@H](Cc2ccc(O)cc2)NC(=O)CSC[C@@H](C(=O)NCC(N)=O)NC(=O)CNC(=O)[C@H](CC(C)C)NC(=O)[C@H](CCC(=O)O)NC(=O)CNC(=O)[C@H](Cc2ccc(O)cc2)NC(=O)[C@@H]2CCCN2C1=O ({CH2CO}-YHHYYRIPYGELGCG-NH2; thioether N-14) was tested, and the IC50 was > 30 µM. Work on CC(C)C[C@@H]1NC(=O)[C@H](CCC(=O)O)NC(=O)CNC(=O)[C@H](Cc2ccc(O)cc2)NC(=O)[C@H](CC(C)C)NC(=O)[C@H]([C@@H](C)O)NC(=O)[C@H](CCCNC(=N)N)NC(=O)[C@H](Cc2ccc(O)cc2)NC(=O)[C@H](Cc2ccc(O)cc2)NC(=O)[C@H](Cc2c[nH]cn2)NC(=O)[C@H](Cc2c[nH]cn2)NC(=O)[C@H](Cc2ccc(O)cc2)NC(=O)CSC[C@@H](C(=O)NCC(N)=O)NC(=O)CNC1=O ({CH2CO}-YHHYYRTLYGELGCG-NH2; thioether N-14) yielded an IC50 of 0.288 µM. Molecule CC(C)C[C@@H]1NC(=O)[C@H](CCC(=O)O)NC(=O)CNC(=O)[C@H](Cc2ccc(O)cc2)NC(=O)[C@H](CC(C)C)NC(=O)[C@H](C(C)C)NC(=O)[C@H](CCCNC(=N)N)NC(=O)[C@H](Cc2ccc(O)cc2)NC(=O)[C@H](Cc2ccc(O)cc2)NC(=O)[C@H](Cc2c[nH]cn2)NC(=O)[C@H](Cc2cnc[nH]2)NC(=O)[C@H](Cc2ccc(O)cc2)NC(=O)CSC[C@@H](C(=O)NCC(N)=O)NC(=O)CNC1=O ({CH2CO}-YHHYYRVLYGELGCG-NH2; thioether N-14) has an IC50 of 0.414 µM. Molecule CC[C@H](C)[C@@H]1NC(=O)[C@H](CO)NC(=O)[C@H](Cc2ccc(O)cc2)NC(=O)[C@H](Cc2ccc(O)cc2)NC(=O)[C@H](Cc2c[nH]cn2)NC(=O)[C@H](Cc2c[nH]cn2)NC(=O)[C@H](Cc2ccc(O)cc2)NC(=O)CSC[C@@H](C(=O)NCC(N)=O)NC(=O)CNC(=O)[C@H](CC(C)C)NC(=O)[C@H](CCC(=O)O)NC(=O)CNC(=O)[C@H](Cc2ccc(O)cc2)NC(=O)[C@H](CC(C)C)NC1=O ({CH2CO}-YHHYYSILYGELGCG-NH2; thioether N-14) has an IC50 of 2.52 µM. CC[C@H](C)[C@@H]1NC(=O)[C@H](Cc2c[nH]cn2)NC(=O)[C@H](Cc2ccc(O)cc2)NC(=O)CSC[C@@H](C(=O)NCC(N)=O)NC(=O)CNC(=O)[C@H](CC(C)C)NC(=O)[C@H](C)NC(=O)CNC(=O)[C@H](Cc2ccc(O)cc2)NC(=O)[C@H](CC(C)C)NC(=O)[C@H](CO)NC(=O)[C@H](C)NC(=O)[C@H](Cc2ccc(O)cc2)NC(=O)[C@H](Cc2ccc(O)cc2)NC1=O ({CH2CO}-YHIYYASLYGALGCG-NH2; thioether N-14) was tested, and the IC50 was 0.0092 µM. CC[C@H](C)[C@@H]1NC(=O)[C@H](Cc2c[nH]cn2)NC(=O)[C@H](Cc2ccc(O)cc2)NC(=O)CSC[C@@H](C(=O)NCC(N)=O)NC(=O)CNC(=O)[C@H](CC(C)C)NC(=O)[C@H](CC(=O)O)NC(=O)CNC(=O)[C@H](Cc2ccc(O)cc2)NC(=O)[C@H](CC(C)C)NC(=O)[C@H](CO)NC(=O)[C@H](C)NC(=O)[C@H](Cc2ccc(O)cc2)NC(=O)[C@H](Cc2ccc(O)cc2)NC1=O ({CH2CO}-YHIYYASLYGDLGCG-NH2; thioether N-14) gave an IC50 of 0.0014 µM. CC[C@H](C)[C@@H]1NC(=O)[C@H](Cc2c[nH]cn2)NC(=O)[C@H](Cc2ccc(O)cc2)NC(=O)CSC[C@@H](C(=O)NCC(N)=O)NC(=O)CNC(=O)[C@H](CC(C)C)NC(=O)[C@H](CCCCN)NC(=O)CNC(=O)[C@H](Cc2ccc(O)cc2)NC(=O)[C@H](CC(C)C)NC(=O)[C@H](CO)NC(=O)[C@H](C)NC(=O)[C@H](Cc2ccc(O)cc2)NC(=O)[C@H](Cc2ccc(O)cc2)NC1=O ({CH2CO}-YHIYYASLYGKLGCG-NH2; thioether N-14) gave an IC50 of 0.0042 µM.
